Where a name gives a salt, the structure may show the parent alone. Read-outs that look alike come from different tables or passages of the source.
Assays:
NAMPT = target: T1, NAMPT (Homo sapiens, UniProt P43490); assay: CycLex NAMPT Colorimetric Assay; type: biochemical; conditions: for IC50: CycLex NAMPT Colorimetric Assay Kit, read-out: NAMPT Inhibition IC50
T1 construct: purchased MBL International Corporation (CycLex NAMPT Colorimetric Assay Kit Ver.2)
Experimental: The ability of the compounds of the disclosure to inhibit NAMPT was determined using the CycLex NAMPT Colorimetric Assay Kit Ver.2 by MBL International Corporation.
The assay detects NAMPT activity in recombinant NAMPT or endogenous NAMPT immunoprecipiated from cell lysates according to the scheme shown in FIG. 3. In this method, NAMPT converts nicotinamide to nicotinamide mononucleotide (“NMN”). Subsequently, nicotinamide mononucleotide adenylyltransferase 1 (“NMNAT1”) converts NMN to NAD^+. Resultant NAD^+ can be measured by enzyme cycling reaction using alcohol dehydrogenase (“ADH”), diaphorase and WST-1.

[1] = test system: human pulmonary artery endothelial cells (hPAECs); assay: BrdU Assay (proliferation), hPAEC; type: cell-based; conditions: for effect on HPAEC proliferation (BrdU assay): dose response, FIG. 6; for IC50: Homo sapiens, Endothelial cell
Experimental: (§1) The effect of the compounds disclosed herein on the viability, proliferation, and apoptosis of human pulmonary artery endothelial cells (“hPAECs,”) and human pulmonary artery smooth muscle cells (“hPASMCs”) was determined using the PrestoBlue Assay (viability), CYQuant Direct or BrdU Assay (proliferation) or Tunel Assay (apoptosis), as described below.
(§2) HPAECs (1×10^4 cells/well) or HPASMCs (2.5×10^3 cells/well) were seeded in 96-well plates for 24 h in full-serum tissue culture medium. The full medium was removed prior to treatment with a NAMPT inhibitor prepared in medium containing 0.1% serum. NAMPT inhibitors were solubilized in 100% DMSO, unless otherwise indicated, prior to preparation of the dose response curve in 100% DMSO. The treatment dose response curve was diluted in 0.1% serum tissue culture medium and administered to cells for 24 h. DMSO diluted in the same medium was used as the vehicle control. Cell viability was measured according to the manufacturer's protocol by adding the PrestoBlue Cell Viability Reagent (ThermoFisher Scientific, #A13261) to cells for 20 min at 37° C. in a tissue culture incubator, followed by reading fluorescence at ex560/em590. Cell proliferation was measured, either in the same wells or in separate experiments, by adding the CyQuant Direct Confirmation Reagent (ThermoFisher Scientific, #C35011) for 1 h at 37° C. in a tissue culture incubator, followed by reading fluorescence at ex485/em538. Proliferation was also measured, in separate experiments, using the BrdU Cell Proliferation Assay (Calbiochem, #QIA58). After treatment with a NAMPT inhibitor for 24 h, BrdU was added to the cells in the presence of the inhibitor, for an additional 24 h and BrdU incorporation was detected according to the manufacturer's protocol. Apoptosis was analyzed by seeding cells (1×10^5 cells/well) in 6-well plates for 24 h in full-serum medium, followed by treatment with a NAMPT inhibitor for 24 h in full-serum medium. Tunel staining and detection was performed using the Tunel Assay Kit (Abcam, #ab66110) according to the manufacturer's protocol.

[2] = test system: human pulmonary artery smooth muscle cells (hPASMCs); assay: BrdU Assay (proliferation), hPASMC; type: cell-based
Experimental: as §1, §2

[3] = Solubility (2.5% v/v DMSO/water); type: physicochemical
[4] = test system: human pulmonary artery endothelial cells (hPAECs); assay: PrestoBlue Assay (viability), hPAEC; type: cell-based; conditions: for effect on HPAEC viability: dose response, FIG. 4
Experimental: as §1, §2

[5] = test system: human pulmonary artery endothelial cells (hPAECs); assay: CyQUANT Direct Assay (proliferation), hPAEC; type: cell-based; conditions: for effect on HPAEC proliferation (CYQuant Direct assay): dose response, FIG. 5
Experimental: as §1, §2

T1 sequence (P43490 whole entry): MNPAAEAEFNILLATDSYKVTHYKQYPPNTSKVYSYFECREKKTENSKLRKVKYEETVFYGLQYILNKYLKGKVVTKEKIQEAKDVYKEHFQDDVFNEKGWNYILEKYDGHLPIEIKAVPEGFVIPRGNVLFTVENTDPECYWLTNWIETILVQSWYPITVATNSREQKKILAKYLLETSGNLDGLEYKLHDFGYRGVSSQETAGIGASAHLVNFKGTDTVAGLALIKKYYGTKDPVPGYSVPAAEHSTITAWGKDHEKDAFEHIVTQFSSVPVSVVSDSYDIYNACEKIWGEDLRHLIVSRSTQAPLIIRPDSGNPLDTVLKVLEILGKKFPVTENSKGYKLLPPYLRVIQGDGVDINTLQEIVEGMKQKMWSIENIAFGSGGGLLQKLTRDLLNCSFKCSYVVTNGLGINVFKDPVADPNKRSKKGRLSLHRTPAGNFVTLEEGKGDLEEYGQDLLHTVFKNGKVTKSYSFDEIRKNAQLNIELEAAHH

| IC50 (NAMPT) [µM] | Structure (SMILES) | further results |
| --- | --- | --- |
| ~10 | O=C(CCc1cccnc1)NCCCCCCn1c(-c2ccccc2)cc2ccccc21 |  |
| 0.092 | [2H][C@@H](C(=O)NCCCCCCn1c(-c2ccccc2)cc2ccccc21)[C@@H]([2H])c1cccnc1 |  |
| 0.124 | O=C(/C=C/c1cccnc1)NCCCCCCn1c(-c2ccccc2)cc2cc(O)c(O)cc21 |  |
| 0.386 | O=C(/C=C/c1cccnc1)NCCCCCCn1c(-c2ccccc2)cc2cc3c(cc21)OCO3 |  |
| 0.97 | Cc1cc2ccccc2n1CCCCCCNC(=O)CCc1cccnc1 |  |
| 1.53 | Cc1ccc2c(ccn2CCCCCCNC(=O)CCc2cccnc2)c1 |  |
| 0.189 | [2H][C@@H](C(=O)NCCCCCC(=O)N1CCc2cc(O)ccc21)[C@@H]([2H])c1cccnc1 |  |
| 0.674 | COc1ccc2c(ccn2CCCCCCNC(=O)CCc2cccnc2)c1 |  |
| 1.54 | O=C(/C=C/c1cccnc1)NCCCCCCn1ccc2cccnc21 |  |
| 2.4 | O=C(CCc1cccnc1)NCCCCCCn1ccc2cccnc21 |  |
|  | CC1Cc2ccccc2N1C(=O)CCCCCNC(=O)/C=C/c1cccnc1 (stereo not shown) | effect on HPAEC proliferation (BrdU assay) [1]: dose-dependently decrease cell proliferation; IC50 ([2]; Homo sapiens): 51.9 µM |
| 0.233 | [2H][C@@H](C(=O)NCCCCCCn1ccc2cc(OCc3ccccc3)ccc21)[C@@H]([2H])c1cccnc1 (relative stereo) [DGMS-RAR-6 D2] |  |
| 0.082 | Cc1cc2ccccc2n1CCCCCCNC(=O)/C=C/c1cccnc1 [5.2.3a] |  |
| 2.14 | O=C(CCc1cccnc1)NCCCCCCn1ccc2ccncc21 [5.2.3b H2] |  |
| 0.23 | O=C(/C=C/c1cccnc1)NCCCCCCn1ccc2ccncc21 [5.2.3b] |  |
| 0.071 | O=C(/C=C/c1cccnc1)NCCCCCCN1c2ccccc2CCc2cc(Br)ccc21 [5.2.3d] |  |
| 0.026 | O=C(/C=C/c1cccnc1)NCCCCCCN1c2ccccc2CC1c1ccccc1 (stereo not shown) [5.2.3e] |  |
| 0.665 | [2H][C@@H](C(=O)NCCCCCCn1ccc2cc(OC)ccc21)[C@@H]([2H])c1cccnc1 [5.2.3f D2] |  |
| 0.17 | Cc1ccc2c(ccn2CCCCCCNC(=O)/C=C/c2cccnc2)c1 [5.2.3g] |  |
| 0.1 | COC(=O)Cc1cn(CCCCCCNC(=O)/C=C/c2cccnc2)c2ccccc12 [5.2.3h] |  |
| 0.11 | O=C(/C=C/c1cccnc1)NCCCCCCn1ccc2cnccc21 [5.2.3k] |  |
| 0.155 | O=C(/C=C/c1cccnc1)NCCCCCCn1ccc2cc(I)ccc21 [5.2.3l] |  |
| 1.2 | O=C(CCc1cccnc1)NCCCCCCn1ccc2cc(O)ccc21 [5.2.3t H2] |  |
| 0.049 | CC1Cc2ccccc2N1C(=O)CCCCCNC(=O)/C=C/c1cccnc1 (stereo not shown) [DGMS-RAR1] |  |

| IC50 (NAMPT) [µM] | Structure (SMILES) | further results |
| --- | --- | --- |
| 0.632 | [2H][C@@H](C(=O)NCCCCCC(=O)N1c2ccccc2CC1C)[C@@H]([2H])c1cccnc1 (stereo partly shown) [DGMS-RAR-1 D2] |  |
| 0.047 | CC1Cc2ccccc2N1CCCCCCNC(=O)/C=C/c1cccnc1 (stereo not shown) [DGMS-RAR-1•HCl] |  |
| 0.034 | CC1Cc2ccccc2N1C(=O)CCCCCNC(=O)/C=C/c1cccnc1 (stereo not shown) [DGMS-RAR-1•HO3SMe] |  |
| 0.08 | O=C(/C=C/c1cccnc1)NCCCCCCN1c2ccccc2CCc2ccccc21 [DGMS-RAR-2] | IC50 [1]: 1.31 µM; effect on HPAEC proliferation (BrdU assay) [1]: dose-dependently decrease cell proliferation; IC50 ([2]; Homo sapiens): 1.5 µM |
| 0.072 | O=C(/C=C/c1cccnc1)NCCCCCC(=O)N1CCCCc2ccccc21 [DGMS-RAR-3] |  |
| 2.31 | [2H][C@@H](C(=O)NCCCCCC(=O)N1C[Si](C)(C)c2ccccc21)[C@@H]([2H])c1cccnc1 [DGMS-RAR-4D2] |  |
| 1.59 | C[Si]1(C)CN(C(=O)CCCCCNC(=O)CCc2cccnc2)c2ccccc21 [DGMS-RAR-4H2] |  |
| 0.141 | C[Si]1(C)CN(C(=O)CCCCCNC(=O)/C=C/c2cccnc2)c2ccccc21 [DGMS-RAR-4] |  |
| 0.1 | O=C(CCc1cccnc1)NCCCCCCN1c2ccccc2CCc2ccccc21 [DGMS-RAR-5.2.3c H2] |  |
| 0.668 | [2H][C@@H](C(=O)NCCCCCC(=O)N1c2ccccc2[Si](CC)(CC)C1C)[C@@H]([2H])c1cccnc1 (stereo partly shown) [DGMS-RAR-5D2] |  |
| 0.368 | CC[Si]1(CC)c2ccccc2N(C(=O)CCCCCNC(=O)CCc2cccnc2)C1C (stereo not shown) [DGMS-RAR-5H2] |  |
| 0.582 | O=C(CCc1cccnc1)NCCCCCCn1ccc2cc(OCc3ccccc3)ccc21 [DGMS-RAR-6 H2] |  |
| 1.01 | O=C(/C=C/c1cccnc1)NCCCCCCn1ccc2cc(OCc3ccccc3)ccc21 [DGMS-RAR-6] |  |
| ~0.1 | O=C(/C=C/c1cccnc1)NCCCCCCn1ccc2cc(OCc3ccccc3)ccc21 [DGMS-RAR-6•HCl] | inhibition at 10 µM (NAMPT): 97% |
| ~0.1 | O=C(/C=C/c1cccnc1)NCCCCCCn1ccc2cc(OCc3ccccc3)ccc21 [DGMS-RAR-6•HO3SMe] | % NAMPT Inhibition at 10 μM (NAMPT): 97% |
| 0.041 | O=C(/C=C/c1cccnc1)NCCCCCC(=O)N1c2ccccc2CC1c1ccccc1 (stereo not shown) [DGMS-RAR-7] | effect on HPAEC viability [4]: dose-dependently decrease cell viability; IC50 ([4]; hPAEC, 24 h treatment): 1.59 µM; IC50 [1]: 95.8 µM; effect on HPAEC proliferation (BrdU assay) [1]: dose-dependently decrease cell proliferation; IC50 [2]: 35400 µM; effect on HPAEC proliferation (CYQuant Direct assay) [5]: dose-dependently decrease cell proliferation; IC50 ([5]; hPAEC, 24 h treatment): 1 µM |
| 0.04 | O=C(O)Cc1cn(CCCCCCNC(=O)/C=C/c2cccnc2)c2ccccc12 [DGMS-RAR-PEG2A] | inhibition at 10 µM (NAMPT): 98% |
| < 0.01 | CCOC(=O)Cc1cn(CCCCCCNC(=O)/C=C/c2cccnc2)c2ccccc12 [DGMS-RAR-PEG2E] | inhibition at 10 µM (NAMPT): 99% |
| 0.021 | COCCOCCOCCOCCOC(=O)Cc1cn(CCCCCCNC(=O)/C=C/c2cccnc2)c2ccccc12 [DGMS-RAR-PEG2] | effect on HPAEC viability [4]: dose-dependently decrease cell viability; inhibition at 10 µM (NAMPT): 97%; Solubility (2.5% v/v DMSO/water) [3]: Moderate |
| 1.05 | O=C(O)CC1CN(C(=O)CCCCCNC(=O)/C=C/c2cccnc2)c2ccccc21 (stereo not shown) [DGMS-RAR-PEG3A] |  |
| 0.044 | CCOC(=O)CC1CN(C(=O)CCCCCNC(=O)/C=C/c2cccnc2)c2ccccc21 (stereo not shown) [DGMS-RAR-PEG3E] |  |
| 0.021 | COCCOCCOCCOCCOC(=O)CC1CN(C(=O)CCCCCNC(=O)/C=C/c2cccnc2)c2ccccc21 (stereo not shown) [DGMS-RAR-PEG3] | effect on HPAEC viability [4]: dose-dependently decrease cell viability; Solubility (2.5% v/v DMSO/water) [3]: Good; effect on HPAEC proliferation (CYQuant Direct assay) [5]: dose-dependently decrease cell proliferation |
| 0.02 | COCCOCCOCCOCCOC(=O)CCC(=O)Oc1ccc2c(ccn2CCCCCCNC(=O)/C=C/c2cccnc2)c1 [DGMS-RAR-mPEG3] | inhibition at 10 µM (NAMPT): 97%; Solubility (2.5% v/v DMSO/water) [3]: good |

| Structure (SMILES) | IC50 (NAMPT) [µM] | further results |
| --- | --- | --- |
| CC[Si]1(CC)c2ccccc2N(C(=O)CCCCCNC(=O)/C=C/c2cccnc2)C1C (stereo not shown) [DGMS-RAR-5] | 0.011 | effect on HPAEC proliferation (BrdU assay) [1]: dose-dependently decrease cell proliferation; IC50 ([2]; Homo sapiens): 102 µM |
| CC[Si]1(CC)c2ccccc2N(C(=O)CCCCCNC(=O)/C=C/c2cccnc2)C1C (stereo not shown) [DGMS-RAR-5•O3SMe] | 0.014 | inhibition at 10 µM (NAMPT): 99%; Solubility (2.5% v/v DMSO/water) [3]: Good |
| CC[Si]1(CC)c2ccccc2N(C(=O)CCCCCNC(=O)/C=C/c2cccnc2)C1C (stereo not shown) [DGMS-RAR-5•OTs] | 0.0103 |  |
| Cl.O=C(/C=C/c1cccnc1)NCCCCCCn1c(-c2ccccc2)cc2ccccc21 [DGMS-RARI•HCl] | 0.032 | % NAMPT Inhibition at 10 μM (NAMPT): 98%; Solubility (2.5% v/v DMSO/water) [3]: Moderate |
| O=C(/C=C/c1cccnc1)NCCCCCCn1c(-c2ccccc2)cc2ccccc21 [DGMS-RARI•HO3SMe] | 0.012 | % NAMPT Inhibition at 10 μM (NAMPT): 98% |
